Reference: ChEMBL document CHEMBL1137849, “Rational design of 6-methylsulfonylindoles as selective cyclooxygenase-2 inhibitors” (Bioorg Med Chem Lett, 2004)

Experiments:
[1] = molecular target: T1, Prostaglandin G/H synthase 1 (Homo sapiens, UniProt P23219); test: Inhibitory concentration against human whole blood Prostaglandin G/H synthase 1 enzyme activity
[2] = molecular target: T2, Prostaglandin G/H synthase 2 (Homo sapiens, UniProt P35354); test: Inhibitory concentration against human whole blood Prostaglandin G/H synthase 2 enzyme activity was determined
T2 sequence (P35354 whole entry): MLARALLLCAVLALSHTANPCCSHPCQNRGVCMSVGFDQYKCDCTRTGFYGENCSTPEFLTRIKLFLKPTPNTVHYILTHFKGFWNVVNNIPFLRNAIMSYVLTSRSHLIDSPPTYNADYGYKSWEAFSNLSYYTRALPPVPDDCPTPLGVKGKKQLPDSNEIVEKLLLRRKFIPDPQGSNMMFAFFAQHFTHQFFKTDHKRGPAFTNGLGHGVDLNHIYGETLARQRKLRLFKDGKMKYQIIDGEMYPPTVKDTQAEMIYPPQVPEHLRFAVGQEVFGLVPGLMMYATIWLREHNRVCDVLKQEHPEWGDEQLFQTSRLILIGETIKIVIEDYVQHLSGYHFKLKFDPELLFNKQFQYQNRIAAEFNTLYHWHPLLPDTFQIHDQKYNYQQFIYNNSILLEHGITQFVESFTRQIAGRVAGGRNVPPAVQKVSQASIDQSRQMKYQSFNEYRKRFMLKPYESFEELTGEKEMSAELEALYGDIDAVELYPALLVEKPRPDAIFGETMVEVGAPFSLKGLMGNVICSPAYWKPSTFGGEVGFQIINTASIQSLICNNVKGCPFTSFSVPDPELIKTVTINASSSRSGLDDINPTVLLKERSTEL

[3] = molecular target: T2, Prostaglandin G/H synthase 2; test: In vitro inhibitory concentration against Prostaglandin G/H synthase 2 enzyme activity
[4] = In vitro inhibitory concentration against Prostaglandin G/H synthase 1 enzyme activity
[5] = Area under curve plasma concentration of compound in rat when administered perorally at 10 mg/kg dose; assay type: ADME, organism-based; set-up: dose 10 mg/kg, route oral; settings: in vivo, po
[6] = Plasma half life of compound was determined in rat; assay type: ADME
[7] = molecular target: T1, Prostaglandin G/H synthase 1; test: Inhibitory concentration against human whole blood Prostaglandin G/H synthase 1
[8] = In vitro inhibitory concentration against Prostaglandin G/H synthase 1

T1 sequence (P23219 whole entry): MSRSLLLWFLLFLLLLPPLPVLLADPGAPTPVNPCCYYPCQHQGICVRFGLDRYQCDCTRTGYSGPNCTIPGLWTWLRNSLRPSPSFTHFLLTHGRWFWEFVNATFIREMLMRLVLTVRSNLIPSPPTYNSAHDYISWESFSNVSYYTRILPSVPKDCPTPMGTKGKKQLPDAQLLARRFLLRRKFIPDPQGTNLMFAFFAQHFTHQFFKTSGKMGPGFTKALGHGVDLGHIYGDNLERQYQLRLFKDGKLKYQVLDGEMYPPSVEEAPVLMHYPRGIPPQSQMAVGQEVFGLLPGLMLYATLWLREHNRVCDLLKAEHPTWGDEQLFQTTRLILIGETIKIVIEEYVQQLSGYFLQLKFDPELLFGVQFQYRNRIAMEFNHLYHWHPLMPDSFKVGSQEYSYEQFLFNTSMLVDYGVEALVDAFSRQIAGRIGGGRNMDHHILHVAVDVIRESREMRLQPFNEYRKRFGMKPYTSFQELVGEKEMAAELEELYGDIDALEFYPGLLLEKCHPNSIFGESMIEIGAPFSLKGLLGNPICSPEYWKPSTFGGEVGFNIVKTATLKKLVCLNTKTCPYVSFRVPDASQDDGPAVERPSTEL

| SMILES | IC50 [1] [µM] | IC50 [2] [µM] | IC50 [3] [µM] | IC50 [4] [µM] | AUC [5] [µM·h] | half-life [6] [h] | IC50 [7] [µM] | IC50 [8] [µM] |
| --- | --- | --- | --- | --- | --- | --- | --- | --- |
| COC(=O)c1[nH]c2cc(S(C)(=O)=O)ccc2c1Sc1ccc(F)cc1F | 17.2 | 0.38 | 0.38 |  |  |  |  |  |
| COc1ccc(Oc2c(C)[nH]c3cccc(S(C)(=O)=O)c23)cc1 | 6 | 1.6 | 0.2 | > 30 |  |  |  |  |
| Cc1[nH]c2cc(S(C)(=O)=O)ccc2c1Sc1ccccn1 | 30 | 5.2 | 1.78 |  |  |  |  |  |
| Cc1[nH]c2cc(S(C)(=O)=O)ccc2c1[S+]([O-])c1ccc(F)cc1 (centres undefined) |  |  | > 40 |  |  |  |  |  |
| COc1ccc(Sc2c(C)[nH]c3cc(S(C)(=O)=O)ccc23)cc1 | 18 | 4.8 | 0.47 | 9 |  |  |  |  |
| CNC(=O)c1[nH]c2cc(S(C)(=O)=O)ccc2c1Sc1ccc(F)cc1F |  |  | > 40 |  |  |  |  |  |
| Cc1[nH]c2cc(S(C)(=O)=O)ccc2c1Oc1ccc(F)cc1F | 33 | 4.1 | 0.11 | 39.5 |  |  |  |  |
| Cc1[nH]c2cc(S(C)(=O)=O)ccc2c1Oc1ccc(Cl)cc1Cl | 33 | 4.1 | 0.11 | 25.8 |  |  |  |  |
| Cc1[nH]c2cc(S(C)(=O)=O)ccc2c1C(=O)c1ccc(F)cc1 | 2.44 | 1.72 | 0.66 | 100 |  |  |  |  |
| Cc1[nH]c2cc(S(C)(=O)=O)ccc2c1Oc1ccc(F)cc1 |  | 2 | 0.03 | > 40 | 35 | 6.2 | 37 |  |
| Cc1[nH]c2cc(S(C)(=O)=O)ccc2c1Cc1ccc(F)cc1 | 63.9 | 11.3 | 0.08 | > 40 |  |  |  |  |
| Cc1[nH]c2cc(S(C)(=O)=O)ccc2c1Sc1ccc(F)cc1 | 55.7 | 2.2 | 0.02 | > 40 |  |  |  |  |
| CS(=O)(=O)c1ccc2c(Sc3ccc(F)cc3F)c(C(N)=O)[nH]c2c1 | > 40 | > 40 | 2.24 |  |  |  |  |  |
| Cc1[nH]c2cc(S(C)(=O)=O)ccc2c1Cc1ccccc1Cl | 118 | 5.5 | 0.07 |  |  |  |  | > 40 |
| Cc1[nH]c2cc(S(C)(=O)=O)ccc2c1Sc1ccc(F)cc1F | 18.2 | 0.77 |  |  | 118 |  |  |  |
| CS(=O)(=O)c1ccc2c(Sc3ccc(F)cc3)c(C#N)[nH]c2c1 | > 125 | 2.3 |  |  |  |  |  |  |
| COc1ccc(Oc2c(C)[nH]c3cc(S(C)(=O)=O)ccc23)cc1 | 6 | 1.6 | 0.2 | > 30 |  |  |  |  |

More lines, main results first:

| IC50 [1] [µM] | IC50 [2] [µM] | IC50 [3] [µM] | IC50 [4] [µM] | AUC [5] [µM·h] | half-life [6] [h] | SMILES | IC50 [7] [µM] | IC50 [8] [µM] |
| --- | --- | --- | --- | --- | --- | --- | --- | --- |
| 8.1 | 1.09 | 0.33 |  |  |  | COc1ccc(Sc2c(C#N)[nH]c3cc(S(C)(=O)=O)ccc23)c(Cl)c1 |  |  |
| > 67 | 0.57 | 0.13 |  | 56 |  | CS(=O)(=O)c1ccc2c(Sc3ccccc3Cl)c(C#N)[nH]c2c1 |  |  |
| 98 | 8.4 | 0.26 | > 40 | 72 | 4.1 | Cc1[nH]c2cc(S(C)(=O)=O)ccc2c1Cc1ccc(F)cc1F |  |  |
| 3.5 | 2.6 |  | > 40 |  |  | COc1ccc(C(=O)c2c(C)[nH]c3cc(S(C)(=O)=O)ccc23)cc1 |  |  |
| > 100 | 5.9 | 0.42 |  |  |  | CS(=O)(=O)c1ccc2c(Sc3ccc(F)cc3)c(CO)[nH]c2c1 |  |  |
| 9.3 | 1.1 | 0.8 |  |  |  | COC(=O)c1[nH]c2cc(S(C)(=O)=O)ccc2c1Sc1ccc(F)cc1 |  |  |
| 12 | 3.8 | 0.3 | 30 |  |  | Cc1[nH]c2cc(S(C)(=O)=O)ccc2c1Oc1ccc(Cl)cc1 |  |  |
| > 60 | 1.27 | 0.94 |  | 316 | 6.3 | CS(=O)(=O)c1ccc2c(Sc3ccc(F)cc3F)c(C#N)[nH]c2c1 |  |  |
|  |  | > 40 |  |  |  | CS(=O)(=O)c1ccc2c(Sc3ccc(F)cc3)c(C(=O)O)[nH]c2c1 |  |  |
| 71.1 | 5.6 | 0.26 | > 40 |  |  | Cc1[nH]c2cc(S(C)(=O)=O)ccc2c1Cc1ccc(Cl)cc1 |  |  |
|  |  | > 40 |  |  |  | CS(=O)(=O)Cc1[nH]c2cc(S(C)(=O)=O)ccc2c1Sc1ccccc1Cl |  |  |
|  |  | > 40 |  |  |  | CC(=O)OCc1[nH]c2cc(S(C)(=O)=O)ccc2c1Sc1ccccc1Cl |  |  |
| > 40 | > 40 | 1.21 |  |  |  | CS(=O)(=O)c1ccc2c(Sc3ccc(F)cc3)c(C(N)=O)[nH]c2c1 |  |  |
|  |  | > 40 |  |  |  | Cc1[nH]c2cc(S(C)(=O)=O)ccc2c1S(=O)(=O)c1ccc(F)cc1 |  |  |
| 7.3 | 5.1 | 0.27 | > 45 |  |  | COc1ccc(Cc2c(C)[nH]c3cc(S(C)(=O)=O)ccc23)cc1 |  |  |
